Several values for one entry are separate records, joined by “and”; a condition that tells them apart may be missing. Equal values may be shown once. Toxic doses and inconclusive results are not listed.
Test system: BDF1 mice, B16 melanoma ip, median survival T/C
Test: NCI In Vivo Anticancer Drug Screen. Data for tumor model B16 Melanoma (intraperitoneal) in B6D2F1 (BDF1) mice
Conditions: endpoint: median survival time, higher = longer survival
Procedure, shortened: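 Compounds were tested in mice carrying transplantable tumors. Survival or tumor size was recorded, and each value is the treated-group measurement (T) divided by that of the vehicle-treated control group (C).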

[1] = dose: 100.0 mg/kg/injection, schedule: Q01DX009 (ip), vehicle: Klucel (hydroxypropylcellulose) (HPC)
[2] = dose: 200.0 mg/kg/injection, schedule: Q01DX009 (ip), vehicle: Klucel (hydroxypropylcellulose) (HPC)
[3] = dose: 25.0 mg/kg/injection, schedule: Q01DX009 (ip), vehicle: saline
[4] = dose: 50.0 mg/kg/injection, schedule: Q01DX009 (ip), vehicle: saline
[5] = dose: 25.0 mg/kg/injection, schedule: Q01DX009 (ip), vehicle: saline with Tween-80
[6] = dose: 50.0 mg/kg/injection, schedule: Q01DX009 (ip), vehicle: saline with Tween-80
[7] = dose: 100.0 mg/kg/injection, schedule: Q01DX009 (ip), vehicle: saline with Tween-80
[8] = dose: 200.0 mg/kg/injection, schedule: Q01DX009 (ip), vehicle: saline with Tween-80
[9] = dose: 400.0 mg/kg/injection, schedule: Q01DX009 (ip), vehicle: saline with Tween-80
[10] = dose: 100.0 mg/kg/injection, schedule: Q01DX009 (ip), vehicle: saline
[11] = dose: 200.0 mg/kg/injection, schedule: Q01DX009 (ip), vehicle: saline
[12] = dose: 50.0 mg/kg/injection, schedule: Q01DX009 (ip), vehicle: Klucel (hydroxypropylcellulose) (HPC)

Cc1[nH]c(=O)[nH]c(=O)c1C
T/C (dose: 50.0 mg/kg/injection, schedule: Q04DX003 (ip), vehicle: Klucel (hydroxypropylcellulose) (HPC)): 88 % of control
T/C [1]: 88 % of control
T/C (dose: 100.0 mg/kg/injection, schedule: Q04DX003 (ip), vehicle: Klucel (hydroxypropylcellulose) (HPC)): 97 % of control
T/C [2]: 91 % of control
T/C (dose: 200.0 mg/kg/injection, schedule: Q04DX003 (ip), vehicle: Klucel (hydroxypropylcellulose) (HPC)): 91 % of control

CCN(CC)CCCC(C)Nc1c2ccc(C)cc2nc2ccc(OC)cc12 (configuration not stated)
T/C (dose: 6.25 mg/kg/injection, schedule: Q01DX009 (ip), vehicle: saline): 89 % of control
T/C (dose: 12.5 mg/kg/injection, schedule: Q01DX009 (ip), vehicle: saline): 99 % of control and 114 % of control
T/C [3]: 124 % of control
T/C [4]: 122 % of control and 123 % of control

C=C(C)[C@H]1Cc2c(ccc3c2O[C@@H]2COc4cc(OC)c(OC)cc4[C@@H]2C3=O)O1
T/C (dose: 4.0 mg/kg/injection, schedule: Q01DX009 (ip), vehicle: saline with Tween-80): 92 % of control and 99 % of control
T/C (dose: 8.0 mg/kg/injection, schedule: Q01DX009 (ip), vehicle: saline with Tween-80): 105 % of control
T/C (dose: 16.0 mg/kg/injection, schedule: Q01DX009 (ip), vehicle: saline with Tween-80): 98 % of control

COC1OC2COC(c3ccccc3)OC2C(O)C1N (configuration not stated)
T/C [5]: 95 % of control
T/C (dose: 33.0 mg/kg/injection, schedule: Q04DX003 (ip), vehicle: saline with Tween-80): 91 % of control
T/C [6]: 95 % of control
T/C (dose: 75.0 mg/kg/injection, schedule: Q04DX003 (ip), vehicle: saline with Tween-80): 93 % of control
T/C [7]: 90 % of control

Cc1ccc(Oc2c3c(nc4ccccc24)CCCC3)cc1
T/C [7]: 110 % of control
T/C [8]: 107 % of control
T/C [9]: 92 % of control

O=C(Nc1cccc(Cl)c1)ON1C(=O)C2C(C1=O)C1(Cl)C(Cl)C(Cl)C2(Cl)C1(Cl)Cl (configuration not stated)
T/C (dose: 12.5 mg/kg/injection, schedule: Q01DX009 (ip), vehicle: saline with Tween-80): 87 % of control
T/C [5]: 96 % of control

NC(CC(=O)O)C(=O)OCc1ccccc1 (configuration not stated)
T/C [3]: 95 % of control
T/C [4]: 108 % of control
T/C [10]: 114 % of control
T/C [11]: 105 % of control

S=C(Nc1ccccn1)Nc1ccccn1
T/C (dose: 25.0 mg/kg/injection, schedule: Q01DX009 (ip), vehicle: Klucel (hydroxypropylcellulose) (HPC)): 97 % of control
T/C [12]: 104 % of control
T/C [1]: 111 % of control

O=C(O)CNC(=O)C(Br)Cc1ccccc1 (configuration not stated)
T/C [5]: 91 % of control
T/C [6]: 88 % of control
T/C [7]: 91 % of control
T/C [9]: 89 % of control

CNCCN(C)CCN(C)Cc1ccc(OC)cc1
T/C [4]: 103 % of control
T/C [10]: 106 % of control
T/C [11]: 106 % of control

COC(=O)C1(C)CCC(c2ccc(OC)cc2)CC1=O (configuration not stated)
T/C [12]: 90 % of control
T/C [2]: 87 % of control

CC[C@H](CC[C@@H](C)[C@H]1CC[C@H]2[C@@H]3CC=C4C[C@@H](O)CC[C@]4(C)[C@H]3CC[C@]12C)C(C)C
T/C [1]: 91 % of control
T/C [2]: 109 % of control
T/C (dose: 400.0 mg/kg/injection, schedule: Q01DX009 (ip), vehicle: Klucel (hydroxypropylcellulose) (HPC)): 94 % of control

CC(=O)Oc1cc(C)c(OC(C)=O)c2ccccc12
T/C [12]: 94 % of control
T/C [1]: 88 % of control

CCCC(O)C(CC)CO (configuration not stated)
T/C [7]: 100 % of control
T/C [8]: 121 % of control
T/C [9]: 115 % of control

Cc1ccc([NH-])c([NH-])c1.[Cl][Pt+2][Cl]
T/C (dose: 1.25 mg/kg/injection, schedule: Q01DX009 (ip), vehicle: saline with Tween-80): 120 % of control
T/C (dose: 5.0 mg/kg/injection, schedule: Q01DX009 (ip), vehicle: saline with Tween-80): 161 % of control

N[C@@H](Cc1ccc(O)c(O)c1)C(=O)O
T/C [3]: 109 % of control
T/C [4]: 98 % of control and 100 % of control
T/C [10]: 102 % of control and 104 % of control
T/C [11]: 102 % of control and 108 % of control
T/C (dose: 400.0 mg/kg/injection, schedule: Q01DX009 (ip), vehicle: saline): 97 % of control and 104 % of control

OCC1OC(n2nnc3cc[nH]c(=S)c32)C(O)C1O (configuration not stated)
T/C (dose: 3.13 mg/kg/injection, schedule: Q01DX009 (ip), vehicle: water): 97 % of control
T/C (dose: 6.25 mg/kg/injection, schedule: Q01DX009 (ip), vehicle: water): 113 % of control
T/C (dose: 12.5 mg/kg/injection, schedule: Q01DX009 (ip), vehicle: water): 101 % of control
T/C (dose: 25.0 mg/kg/injection, schedule: Q01DX009 (ip), vehicle: water): 101 % of control

Reference: PubChem BioAssay AID192 (DTP/NCI, 2004)
